Measured values as given in article PMC6218659, “Structures of DPAGT1 Explain Glycosylation Disease Mechanisms and Advance TB Antibiotic Design” (Cell, 2018).
≈ marks a conversion by molar mass, not a printed value. Like-named read-outs stand apart in the source and are kept apart here.

Key:
[1] = system: Mtb H37Rv ATCC27294; experiment: Minimum inhibitory concentrations testing against Mtb; assay type: cell-based, Mycobacterium tuberculosis; conditions: for MIC: Mycobacterium tuberculosis; for Relative Therapeutic Index (RTI), Mtb H37RV a / Relative Therapeutic Index (RTI), Mtb H37RV b: minimal lethal dose / MIC, 800 μg mL-1 used for >400; for Relative Therapeutic Index (RTI), Mtb H37RV a: 7H9/ADC/Tw; for Relative Therapeutic Index (RTI), Mtb H37RV b: GAST/Fe
[2] = system: HEK293 cells; experiment: Cell proliferation assay (MTS); assay type: cell-based, human; conditions: for LD50 values, HEK293: MTS cell proliferation assay, 24 hrs, highest concentration 400 µg mL-1; for Minimal Lethal Dose, HEK 293: serial 2-fold dilutions (Table S6)
Procedure: (§1) In sterile 96-well plate, each well was seeded with ∼1x10^5 cells. The cells are then grown confluent overnight in 100 μl DMEM with 10% FBS. The medium is replenished with DMEM with 2% FBS and added vehicle control or test substance the next day. For test substance in methanol, stock was added to 25 μl of DMEM with 2% FBS or PBS and placed in the laminar flow hood to let the methanol evaporate (about 1-3 hrs). Once the methanol has evaporated, DMEM with 2% FBS was added to final volume of 100 μl of desired test concentration. […] Cells are grown for additional 24 hrs. The cell viability was determined by using Promega CellTiter 96^© AQueous One Solution Cell Proliferation Assay (3-(4,5-dimethylthiazol-2-yl)-5-(3-carboxymethoxyphenyl)-2-(4-sulfophenyl)-2H-tetrazolium, inner salt; MTS) System following the manufacture protocol.

[3] = system: Raji cells; experiment: Cell proliferation assay (MTS); assay type: cell-based, human; conditions: 24 hrs
Procedure: as §1

[4] = system: HepG2 cells; experiment: Cell proliferation assay (MTS); assay type: cell-based, human; conditions: for LD50 values, HepG2: MTS cell proliferation assay, 24 hrs, highest concentration 400 µg mL-1; for Minimal Lethal Dose, HepG2: serial 2-fold dilutions (Table S6)
Procedure: as §1

[5] = system: B. subtilis EC1524; experiment: Micro-broth dilution and drop plate antimicrobial susceptibility test; assay type: cell-based, Bacillus subtilis; conditions: for IC50 / MBC / MIC: Bacillus subtilis; for Relative Therapeutic Index (RTI), B. subtilis EC1524: minimal lethal dose / MIC, 800 μg mL-1 used for >400
Procedure: (§2) In a sterile 96-well plate, serial dilutions were made with the test substance to final volume of 50 μl. Inoculum was then prepared in Mueller-Hinton broth to 0.5 McFarland and diluted before adding 50 μl to the well to make ∼1x10^5 CFU/ml. The culture plate was incubated at 35 °C for 20-24 hrs. A positive growth control and sterility wells were also prepared along with the culture wells. Absorbance at OD600 was taken using BMG Labtech SPECTROstar Omega spectrophotometer. MIC is determined by the lowest concentration without growth. IC50 is determined from plotting a dose-response curve, see Data Analysis below. To determine the MBC, using a multi-channel pipette, 1 μl of culture broth was taken from the same 96-well microdilution growth plate and carefully inoculated on surface of MH agar plate. The plate is then incubated for additional 20 hrs. at 35 °C. The MBC value is the lowest concentration without observed growth on the agar.

[6] = system: B. cereus ATCC11778; experiment: as above; assay type: cell-based, Bacillus cereus; conditions: for IC50 / MBC / MIC: Bacillus cereus; for Relative Therapeutic Index (RTI), B. cereus NRRL 11778: minimal lethal dose / MIC, 800 μg mL-1 used for >400
Procedure: as §2

[7] = system: E. coli ATCC25922; experiment: as above; assay type: cell-based; conditions: Escherichia coli
Procedure: as §2

[8] = system: S. aureus ATCC29219; experiment: as above; assay type: cell-based; conditions: Staphylococcus aureus
Procedure: as §2

[9] = system: P. aeruginosa ATCC27853; experiment: as above; assay type: cell-based; conditions: Pseudomonas aeruginosa
Procedure: as §2

[10] = 168 h, Mtb H37Rv, minimal growth medium, read-out: 1-week MIC in GAST/Fe
[11] = 168 h, Mtb H37Rv, rich 7H9-based growth medium, read-out: 1-week MIC in 7H9/ADC/Tw
[12] = 168 h, read-out: 1-week MIC in 7H9/ADC/Tw
[13] = 168 h, read-out: 1-week MIC in GAST/Fe
[14] = 168 h, read-out: Minimal Inhibitory Concentration, Mtb H37RV a
[15] = 168 h, read-out: Minimal Inhibitory Concentration, Mtb H37RV b
[16] = EC1524, read-out: Minimal Inhibitory Concentration, B. subtilis EC1524
[17] = ATCC 11778 / NRRL11778, read-out: Minimal Inhibitory Concentration, B. cereus NRRL 11778

SMILES: CC(=O)N[C@H]1C(O)O[C@H](C[C@@H](O)[C@H]2O[C@@H](n3ccc(=O)[nH]c3=O)[C@H](O)[C@@H]2O)[C@H](O)[C@@H]1O (stereo partly drawn) [(2), N-acetyl-tunicamyl-uracil]
- MIC [1, 10]: 42.5 ± 3.5 µg/mL
- MIC [1, 11]: > 60 µg/mL
- LD50 values, HEK293 [2]: N/A (N/A = not available. No or low cytotoxicity observed at highest, saturating concentration tested (400 µg mL-1))
- LD50 values, Raji [3]: 303.80 ± 9.83 µg/mL
- LD50 values, HepG2 [4]: N/A (N/A = not available. No or low cytotoxicity observed at highest, saturating concentration tested (400 µg mL-1))

SMILES: N[C@@H]1CON=C1O [D-cycloserine, reference compound]
- MIC ([1]; Mtb H37Rv, used for macromolecular incorporation assay, read-out: MIC concentrations for controls): 29 µM

SMILES: NNC(=O)c1ccncc1 [Isoniazid, reference compound]
- MIC ([1]; Mtb H37Rv, tested from 0.024 - 50 μM, read-out: MIC of positive control): 0.2 ± 0.1 µM

SMILES: CCCCCCC(=O)N[C@H]1[C@H](O[C@H]2O[C@H](CO)[C@@H](O)[C@H](O)[C@H]2NC(=O)CCCCCC)O[C@H](C[C@@H](O)[C@H]2O[C@@H](n3ccc(=O)[nH]c3=O)[C@H](O)[C@@H]2O)[C@H](O)[C@@H]1O [TUN-7,7, Di-N-heptanoyl tunicamycin]
- MIC [1, 12]: 5 ± 3.5 µg/mL
- MIC [1, 13]: 1.6 ± 1.8 µg/mL
- MIC [1, 14]: 5 µg/mL
- MIC [1, 15]: 1.6 µg/mL
- Relative Therapeutic Index (RTI), Mtb H37RV a [1]: 160
- Relative Therapeutic Index (RTI), Mtb H37RV b [1]: 500
- IC50 ([5]; EC1524): 3.12 ± 1.04 µg/mL (≈ 3.95 µM)
- MBC ([5]; EC1524): > 50 µg/mL
- MIC ([5]; EC1524): 5.2 ± 1.8 µg/mL (≈ 6.58 µM)
- MIC [5, 16]: 6.25 µg/mL (≈ 7.9 µM)
- Relative Therapeutic Index (RTI), B. subtilis EC1524 [5]: 128
- IC50 ([6]; ATCC11778): 13.3 µg/mL (≈ 16.9 µM)
- MBC ([6]; ATCC11778): > 200 µg/mL
- MIC ([6]; ATCC11778): 83 ± 29 µg/mL (≈ 105 µM)
- MIC [6, 17]: 100 µg/mL (≈ 126 µM)
- Relative Therapeutic Index (RTI), B. cereus NRRL 11778 [6]: 8
- IC50 [7]: 131 µg/mL (≈ 166 µM)
- MBC [7]: > 400 µg/mL
- MIC [7]: 330 ± 120 µg/mL (≈ 417 µM)
- IC50 [8]: 80.5 µg/mL (≈ 102 µM)
- MBC [8]: > 400 µg/mL
- MIC [8]: 170 ± 60 µg/mL (≈ 215 µM)
- IC50 [9]: 62.4 µg/mL (≈ 79 µM)
- MBC [9]: > 400 µg/mL
- MIC [9]: 83 ± 29 µg/mL (≈ 105 µM)
- LD50 values, HEK293 [2]: N/A (N/A = not available. No or low cytotoxicity observed at highest, saturating concentration tested (400 µg mL-1))
- Minimal Lethal Dose, HEK 293 [2]: > 400 µg/mL
- LD50 values, Raji [3]: 431.10 ± 241.81 µg/mL
- LD50 values, HepG2 [4]: N/A (N/A = not available. No or low cytotoxicity observed at highest, saturating concentration tested (400 µg mL-1))
- Minimal Lethal Dose, HepG2 [4]: > 400 µg/mL

SMILES: CCCCCCCCCCCC(=O)N[C@H]1[C@H](O[C@H]2O[C@H](CO)[C@@H](O)[C@H](O)[C@H]2NC(=O)CCCCCCCCCCC)O[C@H](C[C@@H](O)[C@H]2O[C@@H](n3ccc(=O)[nH]c3=O)[C@H](O)[C@@H]2O)[C@H](O)[C@@H]1O [TUN-12,12, Di-N-dodecanoyl-tunicamycin]
- MIC [1, 12]: 18.7 ± 5.4 µg/mL
- MIC [1, 13]: 6.9 ± 6.2 µg/mL
- MIC [1, 14]: 18.7 µg/mL
- MIC [1, 15]: 6.9 µg/mL
- Relative Therapeutic Index (RTI), Mtb H37RV a [1]: 43
- Relative Therapeutic Index (RTI), Mtb H37RV b [1]: 116
- IC50 ([5]; EC1524): 58.9 µg/mL (≈ 63.3 µM)
- MBC ([5]; EC1524): > 200 µg/mL
- MIC ([5]; EC1524): 83 ± 29 µg/mL (≈ 89.1 µM)
- MIC [5, 16]: 100 µg/mL (≈ 107 µM)
- Relative Therapeutic Index (RTI), B. subtilis EC1524 [5]: 8
- IC50 ([6]; ATCC11778): 1.4 ± 0.47 µg/mL (≈ 1.5 µM)
- MBC ([6]; ATCC11778): > 200 µg/mL
- MIC ([6]; ATCC11778): 42 ± 14 µg/mL (≈ 45.1 µM)
- MIC [6, 17]: 50 µg/mL (≈ 53.7 µM)
- Relative Therapeutic Index (RTI), B. cereus NRRL 11778 [6]: 16
- IC50 [7]: 182 µg/mL (≈ 195 µM)
- MBC [7]: > 400 µg/mL
- MIC [7]: 330 ± 120 µg/mL (≈ 354 µM)
- IC50 [8]: 61.9 µg/mL (≈ 66.5 µM)
- MBC [8]: > 400 µg/mL
- MIC [8]: 170 ± 60 µg/mL (≈ 183 µM)
- IC50 [9]: 81.7 µg/mL (≈ 87.8 µM)
- MBC [9]: > 400 µg/mL
- MIC [9]: 170 ± 6 µg/mL (≈ 183 µM)
- LD50 values, HEK293 [2]: N/A (N/A = not available. No or low cytotoxicity observed at highest, saturating concentration tested (400 µg mL-1))
- Minimal Lethal Dose, HEK 293 [2]: > 400 µg/mL
- LD50 values, Raji [3]: 81.29 ± 30.20 µg/mL
- LD50 values, HepG2 [4]: N/A (N/A = not available. No or low cytotoxicity observed at highest, saturating concentration tested (400 µg mL-1))
- Minimal Lethal Dose, HepG2 [4]: > 400 µg/mL

SMILES: CC(=O)N[C@H]1[C@H](O[C@H]2O[C@H](CO)[C@@H](O)[C@H](O)[C@H]2NC(C)=O)O[C@H](C[C@@H](O)[C@H]2O[C@@H](n3ccc(=O)[nH]c3=O)[C@H](O)[C@@H]2O)[C@H](O)[C@@H]1O [TUN-Ac,Ac, α-D-N-acetylglucosamine-(1”-11')-N-acetyl tunicamyl uracil]
- MIC [1, 10]: 21.3 ± 1.8 µg/mL
- MIC [1, 11]: ≥ 60 µg/mL
- LD50 values, HEK293 [2]: N/A (N/A = not available. No or low cytotoxicity observed at highest, saturating concentration tested (400 µg mL-1))
- LD50 values, Raji [3]: 212.30 ± 51.48 µg/mL
- LD50 values, HepG2 [4]: N/A (N/A = not available. No or low cytotoxicity observed at highest, saturating concentration tested (400 µg mL-1))

SMILES: CC(C)(C)OC(=O)N[C@H]1[C@H](O[C@H]2O[C@H](CO)[C@@H](O)[C@H](O)[C@H]2NC(=O)OC(C)(C)C)O[C@H](C[C@@H](O)[C@H]2O[C@@H](n3ccc(=O)[nH]c3=O)[C@H](O)[C@@H]2O)[C@H](O)[C@@H]1O [TUN-Boc,Boc, 10',2"-Di-N-Boc-α-D-glucosamine-(1”-11')-tunicamyl uracil]
- MIC [1, 10]: > 60 µg/mL
- MIC [1, 11]: > 60 µg/mL
- LD50 values, HEK293 [2]: N/A (N/A = not available. No or low cytotoxicity observed at highest, saturating concentration tested (400 µg mL-1))
- LD50 values, Raji [3]: 608.9 ± 394.9 µg/mL
- LD50 values, HepG2 [4]: N/A (N/A = not available. No or low cytotoxicity observed at highest, saturating concentration tested (400 µg mL-1))

SMILES: C[C@@H](O)[C@H]1C(=O)N2C(C(=O)O)=C(S[C@@H]3CN[C@H](C(=O)N(C)C)C3)[C@H](C)[C@H]12 [meropenem, reference compound]
- MIC ([1]; Mtb H37Rv, with clavulanate at a fixed concentration of 100 μM, read-out: MIC concentration for control): 2 µM
